The values below come from patent US4663342A, “Pharmaceutical composition and method for immunopotentiation” (Zaidan Hojin Biseibutsu Kagaku Kenkyu Kai, priority 1984, dated 1987).

Data set [1] relates to CDF1 mice immunized with sheep red blood cells (SRBC). Nature of the data set: Delayed Type Hypersensitivity (D.T.H.) footpad test in normal mice immunized with SRBC. The settings on record: for Increase in footpad thickness: 24 h after SRBC challenge; for T/C (%): footpad thickness increase vs control = 100%. Type of data set: in vivo. The protocol: Effect of actinonin on the cellular immunity was investigated by measuring the Delayed Type Hypersensitivity (D.T.H.) (see […] and T. E. Miller: "J. Exp. Med.", 139, 1529-1539 (1974)) using mice immunized with sheep red blood cells (SRBC) as the antigen inoculated to the footpad of the mice. Thus, 10^8 SRBC suspended in 0.05 ml of physiological saline was inoculated by subcutaneous injection into a subdermal site of a hind footpad of CDF1 mice (6 mice per group, female, 8-weeks old) to make immunization. At the time of this immunization, an aqueous solution containing 5 mg/kg, 0.5 mg/kg, 0.05 mg/kg or 0.005 mg/kg of actinonin was administered intraperitoneally at a single dose to each test mice. 4 Days after the immunization, 10^8 SRBC in 0.05 ml of physiological saline were injected subcutaneously into the other hind footpad of the test mice for secondary challenge of the D.T.H. response. 24 Hours after the challenge, the thickness (in mm) of the hind footpad having received the challenge of SRBC was measured with vernier caliper. At the same time, the thickness of footpad of control mice which had received the injection of the SRBC and physiological saline without the administration of the test compound was also measured in each mouse. The increase in footpad thickness of the animals treated was calculated by the following equation: [formula] The effect of actinonin on the DTH response was evaluated by the following equation: [formula] […] In this way, the cell-mediated immunity potentiating effect of the test compound was evaluated. For comparison purpose, bestatin was also tested in the same manner as above.

In data set [2] the test system is mice bearing Ascites Sarcoma 180 tumor. Nature of the data set: D.T.H. response to picryl chloride (ear thickness) in tumor-bearing mice. The settings on record: for Increase in ear thickness: 24 h after picryl chloride challenge; for T/C (%): ear thickness increase vs control = 100%. Type of data set: in vivo. As for the experimental part: In mice bearing Ascites Sarcoma 180 tumor, the effect of actinonin on the D.T.H. response to picryl chloride was investigated. 10^6 Cells of Ascites Sarcoma 180 were transplanted intraperitoneally into CDF1 mice (12-week-old, female, 5 mice per group). The day of this transplantation was designated as Day 0. […] Then, 5.0 mg/kg, 0.5 mg/kg, 0.05 mg/kg or 0.005 mg/kg of actinonin dissolved in physiological saline was orally administered once daily from Day 1 to Day 8, except that on Days 5 and 6 the test compound was not administered. During this period of Day 1 to Day 8, the control group of mice (untreated) was given physiological saline only. On day 8, the right ear was challenged with 20 μl of a 1% olive oil solution of picryl chloride which was absorbed to an absorbent cotton mass cut to a size of 10 mm×5 mm×1 mm. Twenty-four hours after the challenge, the thickness of the ear was measured with a dial gauge. On the other hand, the control animals (untreated) were challenged on Day 8 with picryl chloride and physiological saline in accordance with the same procedure, but without having been treated with the test compound, and the thickness of the ear of the control animals was measured in the same way. The increase in the thickness of ear for the control group of mice was evaluated to be 100%. The increase (T) in the thickness of the ear for the group of mice treated with the test compound was compared with that (C) for the control group of mice to evaluate the rate (T/C, %) of the increase in the thickness of the ear, whereby the cellular immunity-potentiating activity of the compound under test was estimated.

A further data set deals with mice. Kind of data set: Acute toxicity test in mice by intravenous injection. The settings on record: i.v. dosage of 400 mg/kg. Type of data set: in vivo. As for the experimental part:
Acute toxicity tests in mice by intravenous injection have shown that no deaths are caused by the actinonin compound of the formula (I) at an i.v. dosage of 400 mg/kg. […] The actinonin compound of the formula (I) is therefore useful as an immunopotentiator and anti-tumor immunomodulator or as adjuvants to various chemotherapeutic agents for use in the treatment of carcinomas.

The next data set relates to gram-positive bacteria. The settings on record: against gram-positive bacteria; cited from earlier work.
Setting [3] is: 0.5 mg/kg i.p. single dose at immunization.
Setting [4] is: 0.5 mg/kg orally once daily Day 1 to Day 8 (not Days 5, 6).

SMILES strings stand for the structures.

Regarding `CCCCC[C@H](CC(=O)NO)C(=O)N[C@H](C(=O)N1CCC[C@H]1CO)C(C)C` [Actinonin], the “Increase in footpad thickness” value is recorded as 9.2 ± 1.15 × 0.1 mm in data set [1] (0.005 mg/kg i.p. single dose at immunization), 10.4 ± 1.40 × 0.1 mm in data set [1] (0.05 mg/kg i.p. single dose at immunization), 11.4 ± 1.80 × 0.1 mm in data set [1] (setting [3]) and 11.9 ± 1.44 × 0.1 mm in data set [1] (5 mg/kg i.p. single dose at immunization). For the same compound, the “T/C (%)” value in data set [1] (0.005 mg/kg i.p. single dose) turned out to be 107%; in data set [1] (0.05 mg/kg i.p. single dose), 121%; in data set [1] (0.5 mg/kg i.p. single dose), 133%; in data set [1] (5 mg/kg i.p. single dose) it was 138%; in data set [2] (0.005 mg/kg orally once daily), 96.9%; in data set [2] (0.05 mg/kg orally once daily), 140.2%. For the same compound, the “T/C (%)” value in data set [2] (0.5 mg/kg orally once daily) turned out to be 146.0%; in data set [2] (5 mg/kg orally once daily), 94.8%. For the same compound, the “Increase in ear thickness” value in data set [2] (0.005 mg/kg orally once daily Day 1 to Day 8 (not Days 5, 6)) is listed as 4.70 ± 0.67 × 10^-3 cm; in data set [2] (0.05 mg/kg orally once daily Day 1 to Day 8 (not Days 5, 6)), 6.80 ± 0.84 × 10^-3 cm; in data set [2] (setting [4]), 7.08 ± 1.66 × 10^-3 cm; in data set [2] (5 mg/kg orally once daily Day 1 to Day 8 (not Days 5, 6)), 4.60 ± 1.19 × 10^-3 cm. The “Deaths in acute toxicity test” value with mice is recorded as “no deaths”. Also, in the data set with gram-positive bacteria, the Antibacterial activity entry is listed as “exhibits antibacterial activity”.

With `CC(C)C[C@H](NC(=O)[C@@H](O)[C@H](N)Cc1ccccc1)C(=O)O` [Bestatin, reference compound], in data set [1] (setting [3]), the “Increase in footpad thickness” value stood at 12.8 ± 1.47 × 0.1 mm. The “T/C (%)” value in data set [1] (0.5 mg/kg i.p. single dose) was 149%; in data set [2] (0.5 mg/kg orally once daily) it was 139.2%. Further, the “Increase in ear thickness” value in data set [2] (setting [4]) was 6.75 ± 1.51 × 10^-3 cm.
